Experimental data: patent US11116778B2, “Prodrugs of ALOX-15 inhibitors and methods of using the same” (EMPIRICO INC., priority 2019, dated 2021)

What was measured:
alkaline phosphatase = target: T1, alkaline phosphatase (Bos taurus, UniProt P19111); assay: in vitro; type: in vitro ADME, Calf; settings: calf (bovine), pH 8.8
T1 construct: purchased EMD Millipore 524572
Protocol: (§1) To determine if there was effect of addition phosphatase to the phosphate, 30 units of alkaline phosphatase (EMD Millipore Phosphatase, Alkaline, Calf Intestine catalog number 524572) was added to compound 5 and the UV spectrum (210-600 nm) was measured before and after addition of phosphatase. The was a shift in the absorbance maximum from 250 to 260 nm. The ratio of 250/260 went from 0.924 to 1.067 after phosphatase treatment.
(§2) Phosphatase treatment was repeated with 0.1 unit of phosphatase (56 ug) and 0.6 mM compound 5 at a volume of 100 uL (100 mM Tris pH 8.8, 5 mM MgCl2) and monitored as function of time. […] A unit is defined as the amount that can hydrolyze 1 μmol/min of p-nitrophenyl phosphate (PNP). Meaning that 0.1 unit of enzyme was hydrolyzing 0.015 units of phosphate: a ˜6.6 fold decrease in activity relative to PNP.

[1] = target: T2, alkaline phosphatase (Phosphatase, Alkaline, Calf Intestine) (Bos taurus, UniProt P19111); assay: in vitro; type: in vitro ADME
T2 construct: purchased EMD Millipore 524572
T2 sequence (P19111 20-506): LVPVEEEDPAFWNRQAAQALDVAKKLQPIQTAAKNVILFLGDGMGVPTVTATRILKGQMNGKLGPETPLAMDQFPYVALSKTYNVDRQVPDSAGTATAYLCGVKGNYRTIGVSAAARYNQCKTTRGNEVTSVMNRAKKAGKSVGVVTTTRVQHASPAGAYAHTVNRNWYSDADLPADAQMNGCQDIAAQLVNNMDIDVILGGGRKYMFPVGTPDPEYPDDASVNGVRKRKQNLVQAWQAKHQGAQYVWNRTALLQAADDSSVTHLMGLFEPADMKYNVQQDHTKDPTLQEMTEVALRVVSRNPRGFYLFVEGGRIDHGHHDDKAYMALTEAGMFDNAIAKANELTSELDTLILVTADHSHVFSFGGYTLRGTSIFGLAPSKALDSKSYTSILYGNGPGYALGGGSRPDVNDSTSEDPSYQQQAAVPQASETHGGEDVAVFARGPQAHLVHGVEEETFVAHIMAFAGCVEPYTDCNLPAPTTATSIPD
Protocol: as §1, §2

[2] = target: T3, ALOX15 in human nasal epithelial primary cells (HNEpC) (Homo sapiens, UniProt P16050); assay: ALOX15 metabolite levels (15-HETE, 13-HODE) in human nasal epithelial primary cells; type: cell-based; settings: 5 μM or 1 μM
T3 construct: host or cells: human nasal epithelial primary cells (HNEpC), treated with IL-13
T3 sequence (P16050 1-662): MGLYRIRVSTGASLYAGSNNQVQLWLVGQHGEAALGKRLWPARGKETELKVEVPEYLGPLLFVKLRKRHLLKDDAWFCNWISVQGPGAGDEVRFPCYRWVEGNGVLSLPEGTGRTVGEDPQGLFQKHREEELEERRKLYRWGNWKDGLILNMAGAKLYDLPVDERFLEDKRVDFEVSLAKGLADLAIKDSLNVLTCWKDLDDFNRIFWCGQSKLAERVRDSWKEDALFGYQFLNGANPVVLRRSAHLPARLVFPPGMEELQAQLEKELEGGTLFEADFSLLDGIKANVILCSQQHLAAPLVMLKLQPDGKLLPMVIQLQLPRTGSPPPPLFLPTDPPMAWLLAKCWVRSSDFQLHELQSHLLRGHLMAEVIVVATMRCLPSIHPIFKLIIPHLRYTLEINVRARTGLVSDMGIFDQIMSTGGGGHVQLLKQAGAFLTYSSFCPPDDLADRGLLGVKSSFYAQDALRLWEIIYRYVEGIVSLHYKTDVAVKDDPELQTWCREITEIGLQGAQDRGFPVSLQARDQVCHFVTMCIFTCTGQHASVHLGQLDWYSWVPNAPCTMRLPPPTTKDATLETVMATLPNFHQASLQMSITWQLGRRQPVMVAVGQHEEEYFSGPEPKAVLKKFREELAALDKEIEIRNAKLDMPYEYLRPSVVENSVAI
Protocol: Human nasal epithelial primary cells (HNEpC) (PromoCell GmbH, Heidelberg, Germany) were cultured according to the manufacturer in provided Primary Cell media in 24 well plates at a density of 25,000 cells per well. Cells were treated with 5 μM or 1 μM of compound 5 or vehicle only (water) in media containing 20 ng/mL IL-13 for 24 hours in a 37° C. cell culture incubator. The following day, media was replaced and fresh media containing 20 ng/mL IL-13 and compound 5 or vehicle was added to each well, then incubated again for 24 hours in a 37° C. cell culture incubator. The process was repeated once more for a 24-hour period.
To determine levels of arachidonic acid and linoleic acid metabolites after compound treatment, cell media was replaced with fresh Primary Cell media without IL-13. ALOX15 substrate (arachidonic acid or linoleic acid) was added to each well at a concentration of 1.5 μM and cells further incubated 37° C. for 1 hour. Media was collected from each well and quenched with an equal volume of LC/MS extraction buffer (methanol, 60 mM ascorbic acid, 0.1% acetic acid).
15-HETE and 13-HODE were quantified using LC-MS/MS (QTrap5500, Applied Biosystems). Q1/Q3 masses: 319.10/219.10 for 15-HETE and 295.10/195.10 Da for 13-HODE. Deuterated 15-HETE (Cayman Chemical) was used as the internal standard. The Q1/Q3 masses are 327.10/184.10 Da for the 15-HETE deuterated standard. […]

[3] = target: T4, 15-lipoxygenase in primary peripheral blood eosinophils (Homo sapiens, UniProt P16050); assay: Inhibition of 15-lipoxygenase in human primary eosinophils with short-term exposure, 15-HETE LC-MS/MS; settings: 10 μM for 30 minutes, 3 μM arachidonic acid, 5 minutes
T4 sequence (P16050 1-662): T3 sequence (P16050 1-662)
Protocol: Two independent experiments were performed in which primary peripheral blood eosinophils (StemExpress) were thawed from frozen and allowed to recover in growth media for 4 hours at 37° C. […] Arachidonic acid was added to final concentration of 3 μM and experiment started. At 5 minutes post-treatment, the entire reaction was quenched with an equal volume of extraction buffer (methanol, 60 mM ascorbic acid, 0.1% acetic acid) and 15-HETE quantified. Briefly, 15-HETE was quantified using LC-MS/MS (QTrap5500, Applied Biosystems). […] Deuterated 15-HETE (Cayman Chemical) was used as the internal standard. […] Oxidized fatty acids were extracted using liquid/liquid extraction with acetonitrile as a diluent. Reverse chromatography was performed using a Unison UK-C18 column (Imtakt, 50×3 mm i.d., 3 μm, PN: UK-032) using a water/acetonitrile gradient containing 0.05% ammonium hydroxide and 0.1% formic acid.

T1 sequence (P19111 20-506): as the sequence (P19111 20-506) above

half-life at 0.6 mM (alkaline phosphatase): 2 min | decrease in phosphatase activity relative to PNP (p-nitrophenyl phosphate) ([1]; 0.1 unit of enzyme hydrolyzing 0.015 units of phosphate): ~6.6 fold | rate at which the phosphatase cleaved the phosphate ([1]; 0.1 unit phosphatase, 0.6 mM compound 5, 100 uL): 0.015 µmol/min | 15-HETE produced versus vehicle alone (FIG. 4) ([2]; 3 x 24 hours with 20 ng/mL IL-13, then 1.5 μM arachidonic acid 1 hour): less | 13-HODE produced versus vehicle alone (FIG. 5) ([2]; 3 x 24 hours with 20 ng/mL IL-13, then 1.5 μM linoleic acid 1 hour): less | less 15-HETE relative to cells treated with vehicle only (FIG. 3) ([3]; Experiment 1): approximately 79% | less 15-HETE relative to cells treated with vehicle only (FIG. 3) ([3]; Experiment 2): 63%
Structure (SMILES): O=C(Nc1ccc(F)cc1Cl)c1nn(COP(=O)(O)O)c(Cl)c1Cl [compound 5, (4,5-dichloro-3-((2-chloro-4-fluorophenyl)carbamoyl)-1H-pyrazol-1-yl)methyl dihydrogen phosphate]
